Data reported in PubChem BioAssay (NCI).
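At the GI50, growth is halved. Definition used: TGI = concentration required for complete inhibition of growth.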

Legend:
Assay in all cases: NCI tumour cell line growth inhibition, 384-well format
786-0 renal = tested on: 786-0 renal
A498 renal = tested on: A498 renal
A549 NSCLC = tested on: A549 NSCLC
ACHN renal = tested on: ACHN renal
BT-549 breast = tested on: BT-549 breast
CAKI-1 renal = tested on: CAKI-1 renal
COLO 205 colon = tested on: COLO 205 colon
DU-145 prostate = tested on: DU-145 prostate
EKVX NSCLC = tested on: EKVX NSCLC
HCT-15 colon = tested on: HCT-15 colon
HL-60(TB) leukemia = tested on: HL-60(TB) leukemia
HOP-62 NSCLC = tested on: HOP-62 NSCLC
HOP-92 NSCLC = tested on: HOP-92 NSCLC
HS 578T breast = tested on: HS 578T breast
HT29 colon = tested on: HT29 colon
IGROV1 ovarian = tested on: IGROV1 ovarian
K-562 leukemia = tested on: K-562 leukemia
KM12 colon = tested on: KM12 colon
M14 melanoma = tested on: M14 melanoma
MALME-3M melanoma = tested on: MALME-3M melanoma
MCF7 breast = tested on: MCF7 breast
MDA-MB-231 breast = tested on: MDA-MB-231 breast
MDA-MB-435 melanoma = tested on: MDA-MB-435 melanoma
MDA-MB-468 breast = tested on: MDA-MB-468 breast
MOLT-4 leukemia = tested on: MOLT-4 leukemia
NCI-H226 lung = tested on: NCI-H226 lung
NCI-H23 lung = tested on: NCI-H23 lung
NCI-H322M lung = tested on: NCI-H322M lung
NCI-H460 NSCLC = tested on: NCI-H460 NSCLC
NCI-H522 lung = tested on: NCI-H522 lung
OVCAR-3 ovarian = tested on: OVCAR-3 ovarian
OVCAR-4 ovarian = tested on: OVCAR-4 ovarian
OVCAR-5 ovarian = tested on: OVCAR-5 ovarian
OVCAR-8 ovarian = tested on: OVCAR-8 ovarian
PC-3 prostate = tested on: PC-3 prostate
RXF 393 renal = tested on: RXF 393 renal
SF-268 CNS = tested on: SF-268 CNS
SF-295 CNS = tested on: SF-295 CNS
SF-539 CNS = tested on: SF-539 CNS
SK-MEL-2 melanoma = tested on: SK-MEL-2 melanoma
SK-MEL-28 melanoma = tested on: SK-MEL-28 melanoma
SK-MEL-5 melanoma = tested on: SK-MEL-5 melanoma
SK-OV-3 ovarian = tested on: SK-OV-3 ovarian
SN12C renal = tested on: SN12C renal
SNB-19 CNS = tested on: SNB-19 CNS
SNB-75 CNS = tested on: SNB-75 CNS
SR leukemia = tested on: SR leukemia
SW-620 colon = tested on: SW-620 colon
T-47D breast = tested on: T-47D breast
TK-10 renal = tested on: TK-10 renal
U251 glioblastoma = tested on: U251 glioblastoma
UACC-257 melanoma = tested on: UACC-257 melanoma
UACC-62 melanoma = tested on: UACC-62 melanoma
UO-31 renal = tested on: UO-31 renal

Cc1nc(Nc2n[nH]c3c2CN(C(=O)N[C@H](CN(C)C)c2ccccc2)C3(C)C)c2sccc2n1
GI50 ([…]-0 renal): 58.1 nM
TGI (786-0 renal): 1920 nM
GI50 (A498 renal): 30.1 nM
TGI (A498 renal): 2380 nM
GI50 (A549 NSCLC): 39.6 nM
TGI (A549 NSCLC): 61700 nM
GI50 (ACHN renal): 35.6 nM
TGI (ACHN renal): 3060 nM
GI50 (BT-549 breast): < 10 nM
TGI (BT-549 breast): 109 nM
GI50 (CAKI-1 renal): 52.2 nM
TGI (CAKI-1 renal): 2790 nM
GI50 (COLO 205 colon): < 10 nM
TGI (COLO 205 colon): 193 nM
GI50 (DU-145 prostate): < 10 nM
TGI (DU-145 prostate): 10200 nM
GI50 (EKVX NSCLC): 195 nM
TGI (EKVX NSCLC): 2140 nM
GI50 (HCT-15 colon): 449 nM
TGI (HCT-15 colon): 13600 nM
GI50 (HL-60(TB) leukemia): < 10 nM
TGI (HL-60(TB) leukemia): 117 nM
GI50 (HOP-62 NSCLC): < 10 nM
TGI (HOP-62 NSCLC): 113 nM
GI50 (HOP-92 NSCLC): 131 nM
TGI (HOP-92 NSCLC): 911 nM
GI50 (HS 578T breast): 93.6 nM
TGI (HS 578T breast): 763 nM
GI50 (HT29 colon): 10.8 nM
TGI (HT29 colon): 1750 nM
GI50 (IGROV1 ovarian): < 10 nM
TGI (IGROV1 ovarian): 449 nM
GI50 (K-562 leukemia): < 10 nM
TGI (K-562 leukemia): 3390 nM
GI50 (KM12 colon): < 10 nM
TGI (KM12 colon): 1060 nM
GI50 (M14 melanoma): 18.8 nM
TGI (M14 melanoma): 1500 nM
GI50 (MALME-3M melanoma): < 10 nM
TGI (MALME-3M melanoma): 1490 nM
GI50 (MCF7 breast): < 10 nM
TGI (MCF7 breast): 193 nM
GI50 (MDA-MB-231 breast): 102 nM
TGI (MDA-MB-231 breast): 1240 nM
GI50 (MDA-MB-435 melanoma): < 10 nM
TGI (MDA-MB-435 melanoma): 1670 nM
GI50 (MDA-MB-468 breast): < 10 nM
TGI (MDA-MB-468 breast): 431 nM
GI50 (MOLT-4 leukemia): < 10 nM
TGI (MOLT-4 leukemia): 122 nM
GI50 (NCI-H226 lung): 88.1 nM
TGI (NCI-H226 lung): 1590 nM
GI50 (NCI-H23 lung): < 10 nM
TGI (NCI-H23 lung): 214 nM
GI50 (NCI-H322M lung): 174 nM
TGI (NCI-H322M lung): 1580 nM
GI50 (NCI-H460 NSCLC): < 10 nM
TGI (NCI-H460 NSCLC): 1300 nM
GI50 (NCI-H522 lung): < 10 nM
TGI (NCI-H522 lung): 214 nM
GI50 (OVCAR-3 ovarian): < 10 nM
TGI (OVCAR-3 ovarian): 152 nM
GI50 (OVCAR-4 ovarian): 40.6 nM
TGI (OVCAR-4 ovarian): 3790 nM
GI50 (OVCAR-5 ovarian): 61.3 nM
TGI (OVCAR-5 ovarian): 11200 nM
GI50 (OVCAR-8 ovarian): 33.3 nM
TGI (OVCAR-8 ovarian): 1470 nM
GI50 (PC-3 prostate): < 10 nM
TGI (PC-3 prostate): 642 nM
GI50 (RXF 393 renal): 144 nM
TGI (RXF 393 renal): 960 nM
GI50 (SF-268 CNS): 118 nM
TGI (SF-268 CNS): 1350 nM
GI50 (SF-295 CNS): 57.1 nM
TGI (SF-295 CNS): 2290 nM
GI50 (SF-539 CNS): < 10 nM
TGI (SF-539 CNS): 1020 nM
GI50 (SK-MEL-2 melanoma): < 10 nM
TGI (SK-MEL-2 melanoma): 207 nM
GI50 (SK-MEL-28 melanoma): < 10 nM
TGI (SK-MEL-28 melanoma): 1260 nM
GI50 (SK-MEL-5 melanoma): < 10 nM
TGI (SK-MEL-5 melanoma): 827 nM
GI50 (SK-OV-3 ovarian): 178 nM
TGI (SK-OV-3 ovarian): 8090 nM
GI50 (SN12C renal): < 10 nM
TGI (SN12C renal): 1150 nM
GI50 (SNB-19 CNS): 382 nM
TGI (SNB-19 CNS): 12500 nM
GI50 (SNB-75 CNS): 274 nM
TGI (SNB-75 CNS): 1410 nM
GI50 (SR leukemia): < 10 nM
GI50 (SW-620 colon): < 10 nM
TGI (SW-620 colon): 2210 nM
GI50 (T-47D breast): 576 nM
TGI (T-47D breast): 3840 nM
GI50 (TK-10 renal): 179 nM
TGI (TK-10 renal): 11000 nM
GI50 (U251 glioblastoma): < 10 nM
TGI (U251 glioblastoma): 2660 nM
GI50 (UACC-257 melanoma): 19 nM
TGI (UACC-257 melanoma): 632 nM
GI50 (UACC-62 melanoma): < 10 nM
TGI (UACC-62 melanoma): 19.4 nM
GI50 (UO-31 renal): 1610 nM
TGI (UO-31 renal): 14400 nM
